Test results published in patent US10022382B2, “RNA polymerase I inhibitors and uses thereof” (Tel HaShomer Medical Research Infrastructure and Services …, priority 2013, dated 2018).

How the values were obtained:
[1] = system: C57BL/6J mice; assay: Toxicity (LD50, survival) in the EAE model, continuous administration; format: in vivo
Method: (§1) The animals were evaluated for signs of acute toxicity and survival during the entire administration period in the EAE model.
(§2) The therapeutic index (LD50/ED50), which is also referred to herein as Safety Margin (SM), was then determined based on the EAE model.

[2] = as above; format: in vivo; conditions: C57BL/6J, mouse, in vivo, oral; EAE prevention model, continuous administration
Method: as §1, §2

[3] = Bioavailability: serum level after oral gavage or IV; format: in vivo, mice; conditions: for time to maximal concentration: healthy C57B6J female mice
Method: Bioavailability: Determination of the level of the tested compound in serum was done following oral gavage. Blood samples (0.5 mL) were collected and immediately centrifuged at 5,000 rpm for 10 minutes. The serum was separated and stored at −20° C. until fluoprometric analysis by Tecan SpectraFluor, based on the specific excitation/emission values of the tested compound was conducted. The pharmacokinetic parameters including serum maximum concentration (Cmax), the time needed to reach Cmax (Tmax), and half-life (T1/2), were calculated to evaluate oral bioavailability. The serum concentration after oral gavages was calculated according to a calibration curve for each compound in the serum. The Pharmacokinetic properties of compound 10 were quantified by the LCMS method described below. The concentration of Compound 10 was calculated with a calibration curve. The serum was prepared for analysis using protein precipitation. 15 μL of water were added to 15 μL of serum and a H2O: MeOH: CHCl3 (90:120:30) solution was added. The supernatant was subjected to LCMS analysis equipped with a PHENOMENEX® C-18 RP column.

[4] = system: Mouse splenocytes; assay: XTT cell viability assay, PHA-stimulated splenocytes; format: cell-based; conditions: 72 hours
Method: Cell viability was assessed by the 2,3 bis [2-Methoxy-4-nitro-5-sulfophenyl]-2H-tetrazolium-5-carboxanilide (XTT) assay (Biological Industries, Kibbutz Beit Hemeek, Israel), which measures the reduction of a tetrazolium component (XTT) into soluble formazan product by the mitochondria of viable cells. The intensity of the dye obtained is proportional to the number of metabolic active cells. On the day of measurement, cells were washed and XTT was added according to the manufacturer's instructions. Plates were incubated at 37° C. for 2-5 hours. The absorbance was read at 450 nm.
Mouse splenocytes were removed and spleenocytes were plated (250,000 cell/well) in DMEM+10% FCS+P/S+Q and […] Phytohaemaglutinin (PHA), in the presence of elevated concentrations (25-400 nM) of RAM-0 (Compound 1), RAM-1 (Compound 4), RAM-2 (Compound 2) or RAM-3 (Compound 3) for 72 hours. Cells cultured without PHA served as control. Control mice at zero are mice splenocytes with PHA stimulation.
Following incubation, cell viability was determined by XTT assay, as described above.

[5] = Solubility in mQ water; format: physicochemical; conditions: 50 mg in 0.5 mL mQ water, room temperature
Method: The solubility of Compounds 1 and 10 was determined by dissolving 50 mg of the tested compound in 0.5 mL of mQ water, at room temperature.

[6] = system: Pol II; assay: Cell-free polymerase II transcription from CMV promoter; format: biochemical, human; conditions: 200 nM
Method: Transcription by polymerase II from CMV promoter was tested similarly using the template provided HeLa scribe kit of Promega, further processing as described above and analysis of transcript with template specific primers: POL II forward primer: ctatgcgcacccgttctc (SEQ ID NO: 73), Pol II reverse primer: gtagcgaagcgagcagga (SEQ ID NO: 74). Probe ID: #70, cat. no. 04688937001 (Roche), was used for both reactions.

[7] = EAE mice, 30 mg/kg every alternate day until disease onset

In the case of `Cc1cnc(CNC(=O)c2/c(=N/c3ccccc3)c3ccc(N4CCCN(C)CC4)nc3n3c2sc2ccccc23)cn1` [Compound 10, (E)-2-(4-methyl-1,4-diazepan-1-yl)-N-((5-methylpyrazin-2-yl)methyl)-5-(phenylimino)-5H-benzo[4,5]thiazolo[3,2-a][1,8]naphthyridine-6-carboxamide], the survival ([1]; C57BL/6J, mouse, in vivo, 28 days) is reported as 100%, the behavioral changes [1, 7] is reported as “No behavioral changes” and the survival [1, 7] is reported as “No effect on survival”. The tolerability [1, 7] was “well tolerated”, the signs of toxicity ([1]; all treated groups, EAE model, alternate days) was “without apparent signs of toxicity” and the LD50 [2] was 30 mg/kg. The “bioavailability AUC(oral)/AUC(IV)” value ([3]; 12.5 mg/kg, up to 168 h) was 72%, the “time to maximal concentration” value ([3]; IV, 12.5 mg/kg) was 0.5 h and the “Cmax compared to Compound 1” value ([3]; mice serum, oral gavage) was “higher”. The “Tmax compared to Compound 1” value ([3]; mice serum, oral gavage) was “lower”, the “clearance compared to Compound 1” value ([3]; mice serum, oral gavage) was “faster” and the absorption ([3]; oral and IV, 12.5 mg/kg) was “rapidly absorbed”. For the same compound, the “time to maximal concentration” value ([3]; oral, 12.5 mg/kg) was 2 h, the “suppression of splenocyte proliferation compared to Compound 1 (XTT)” value [4] was “improved performance” and the IC50 ([4]; Splenocyte, mouse splenocytes, 25-400 nM) was 40 nM. The solubility [5] was “immediately dissolved in the aqueous solution” and the “effect on Pol II transcription from the CMV promoter” value [6] was 5%.
